For assay [1], the system named is MLR in a BALB/c (H-2D) anti C3H (H-2K) alloresponse. Description: MLR of Example 10 (Table II). Format: cell-based, mouse. The settings on record: MLR without peptide 66000 CPM. On the procedure: (§1) Mice were sacrificed and spleens aseptically removed. Cell suspensions were made by gently pressing spleens through nylon mesh, washing cells with RPMI 1640 and hypotonic lysis of red blood cells. After 3 washes in RPMI 1640, cells were resuspended in complete medium (RPMI 1640, 10% heat inactivated FCS, 2 mM L-glutamine, penicillin/streptomycin, and […]). 1×10^5 responder cells (BALB/c spleen cells) were incubated with 1×10^5 stimulator cells (C3H spleen cells, 2000 rad irradiated) in triplicate in round bottom 96 well plates (final volume 200 μl), and incubated with the indicated concentration of peptide (0.01, 0.1, 1, 10, 100 and 1000 μM peptide) for 5 days at 37° C., 5% CO2. 1 μCi/WELL OF [^3 H] TdR was added 12 hours before thymidine incorporation was measured. Labelled DNA from cells was harvested onto glass fiber filters with a PHD cell harvester (Cambridge, Mass.), and CPM determined by liquid scintillation counting with the use of a 1209 Rackbeta (LKB, Piscataway, N.J.).
A MLR was performed as described in Example 6. h84-101 C--C, SEQ ID NO:4, SEQ ID NO:5, SEQ ID NO:6, SEQ ID NO:11, (SEQ ID NO:4+SEQ ID NO:5), and a monoclonal antibody directed against CD4 (OKT4A) were tested for their effect on MLR in a BALB/c (H-2D) anti C3H (H-2K) alloresponse. MLR was also performed without the addition of peptide or antibody (MLR). Each peptide individually has inhibitory activity to a moderate level (30-50%), but when two analogs are added together (SEQ ID NO:4 and SEQ ID NO:5) the effect was synergistic and the inhibition approached 100%, as compared to a monoclonal antibody directed against CD4 (OKT4A).

For assay [2], the system named is human T cells stimulated with PHA. Description: Phytohemagglutinin T cell proliferation assay. Format: cell-based. On the procedure:
The mitogen phytohemagglutinin (PHA) activates T cells by cross-linking CD3/TCR complexes. Human blood is collected from volunteer donors. Lymphocytes are purified by separation over a Ficoll gradient. T cells are separated by rosetting to sheep red blood cells. The enriched T cell population is stimulated with 5 μg/ml phytohemagglutinin (PHA). FIG. 7 illustrates the ability of the D2 peptide analogs to inhibit T cell proliferation in response to PHA stimulation. […] Results are illustrated in FIG. 7.

Assay [3] has as its system BALB/c spleen cells (responder) with irradiated C3H spleen cells (stimulator). Description: Mixed lymphocyte reaction (MLR), BALB/c anti-C3H alloresponse. Format: cell-based, mouse.
Source text: The mixed lymphocyte reaction (MLR) is the response of one individual's T lymphocytes to those of a major histocompatibility complex (MHC) mismatched donor. CD4+ T cells recognize the foreign MHC proteins and proliferate in response to this, in a manner highly dependent on the CD4 molecule.
as §1
A MLR was performed as described in Example 6. Cells were incubated with a 0.01, 0.1, 1, 10, 100, and 1000 μM of each of the following peptides: SEQ ID NO:1 (mPGPtide), and control peptides, SEQ ID NO:3 (hPGPtides) and SEQ ID NO:13 (mCDR3 scramble). […] Activity was approximately 85000 CPM after the addition of 0.01 μM SEQ ID NO:1, and approximately 30000 CPM after the addition of 200 μM SEQ ID NO:1. […] Activity was approximately 75000 CPM at 0.01 μM SEQ ID NO:3, and approximately 60000 CPM after the addition of 200 μM SEQ ID NO:3. Similarly, activity was approximately 80000 CPM after the addition of 0.01 μM of SEQ ID NO:13, and approximately 90000 CPM after the addition of 200 μM SEQ ID NO:13. […]

Assay [4] relates to human mixed lymphocyte reaction. Description: Human mixed lymphocyte reaction (Example 8, FIG. 3). Format: cell-based.
In another assay the test system is EAE in SJL mice. Description: Experimental allergic encephalomyelitis (EAE) model. Format: in vivo, mouse. The note with it: for maximum EAE incidence: SJL mice, untreated 83%; for maximum mean EAE severity grade (0-5): untreated 2.17; for average time of initial onset: untreated day 15.6. The protocol: Experimental allergic encephalomyelitis (EAE) is considered to be the best experimental animal model for the study of multiple sclerosis since it shares many of the same clinical and histopathological features as the human disorder. EAE can be elicited in several animal species, including mice, by inoculation of crude CNS tissue extracts, purified MBP, proteolipids, or synthetic polypeptides composed of the active portions of these antigenic molecules. Antigen is administered subcutaneously in conjunction with complete Freund's adjuvant (CFA) and, in our modification of the standard procedure, is given twice on days 0 and 7 for induction (Korngold et al., (1986) Immunogenetics 24:309-315, which is incorporated herein by reference). Symptoms of disease usually occur between 15-19 days after initial immunization and may last for up to 25 days. Mice usually recover from the acute EAE attack, but may relapse at a later time, or are susceptible to an enhanced disease episode upon further immunization.
SJL mice, which are highly susceptible to the induction of acute EAE, were immunized as described in Korngold et al., (1986) Immunogenetics 24:309-315. Accordingly, 1 mg of crude SJL mouse spinal cord homogenate (MSCH) was diluted in 0.15 ml phosphate buffered solution and emulsified in an equal volume of CFA. 0.15 ml of the inoculum was injected subcutaneously in each of two sites on the posterior flank of mice anesthetized with metaphane. A secondary inoculation, similar to the primary, was administered at 7 days. Mice were evaluated daily for symptoms of disease and graded 0-5: 0=no clinical expression of disease; 1=flaccid tail with or without mild hind leg weakness; 2=flaccid tail with moderate hind leg weakness; 3=severe hind leg weakness and mild forelimb weakness; 4=total hind leg paralysis associated with moderate forelimb weakness; and 5=quadriplegia or a moribund state.
The mice were divided into four groups: the first left untreated; the second injected on days 2 and 8 intravenously 10 (i.v.) with 0.5 mg of the D amino acid CDR3-like peptide #1; the third injected on day 12 i.v. with the D amino acid CDR3-like peptide #1; and the fourth injected i.v. on days 2 and 8 with a control D-polypeptide of similar length to the D amino acid CDR3-like peptide #1.
With the same experiment described above, mice from the different treatment groups were scored for the clinical expression of disease. […] The ifferences were statistically significant, by Tukey multiple analysis of variance, between: the untreated and the D amino acid CDR3-like peptide #1 day 2,8 treated group on days 16-19 and 24 […]; the untreated and the D amino acid CDR3-like peptide #1 day 12 treated group on days 16-24 (0.01≤p≤0.05); and the control peptide day 2,8 group and the D amino acid CDR3-like peptide #1 day 2,8 treated group on day 17 (p=0.02).
To investigate whether D amino acid CDR3-like peptide #1 could have an effect upon the development of EAE once symptoms have already appeared and therefore corresponding to the effector phase of the disease, 30 SJL mice were inoculated on days 0 and 7 with MSCH and CFA, as described above. 12 mice that had reached a grade 1 level of clinical EAE expression by day 16 were selected and randomly grouped to be left untreated or treated with 0.5 mg i.v. of D amino acid CDR3-like peptide #1. […] At day 18, the difference between the untreated and treated groups was statistically significant (p=0.003).

For assay [5], the system named is lethal GVHD in irradiated DBA/2 mice given B10.D2 CD4+ T cells. Nature of the assay: GVHD mediated by CD4+ T cells. Format: in vivo, mouse. The note with it: 0.5 mg i.v. on days 0 and 3. The text has this:
The transplantation of B10.D2 CD4+ T cells along with T-cell-depleted bone marrow has been shown previously to induce a lethal GVHD response in irradiated (850 cGy) DBA/2 mice (Korngold and Sprent, (1987) J. Exp. Med. 165:1552-1564).

Bridges are numbered along the chain shown (N, C = ends). Where no end group is shown, it is not given here. [ ]: non-standard residue; d: D form.

For C*RSPRGKNC [SEQ ID NO:6], in assay [1], the CPM amounted to 50000 CPM. Besides, the “CPM after PHA stimulation” value in assay [2] (0.25 μM peptide, 5 μg/ml PHA) was found to be 48000 CPM; in assay [2] (250 μg peptide), 39500 CPM.
Turning to CLLVFEVEDQKEEVQGLC [SEQ ID NO:13], the “MLR activity (CPM)” value in assay [3] (0.01 μM peptide) is “approximately 80000 CPM”; in assay [3] (200 μM peptide), “approximately 90000 CPM”. In assay [3] (BALB/c anti-C3H MLR, 5 days, [3H]TdR incorporation), the “inhibitory activity on MLR” value is given as “little or no activity”. Moreover, the “% CPM of the positive control” value in assay [4] (500 μM peptide) is given as “about 100%”. Besides, the “inhibition of the proliferative response of the human MLR” value in assay [4] (0.1-1000 μM) is on record as “little or no inhibition”.
For the substance “CPGPEEKRNELEC ([dC][dP]G[dP][dE][dE][dK][dR][dN][dE][dL][dE][dC]; disulfide 1-13 (inferred)) [D amino acid CDR3-like peptide #1]”, the “EAE severity grade reached, effector phase” value in the assay on EAE in SJL mice (0.5 mg i.v. at grade 1 on day 16, value on day 19, untreated 2.4 by day 18) turned out to be 1.17. Further, the “maximum EAE incidence” value in the assay with EAE in SJL mice (i.v. on day 12) stood at 31%; in the assay with EAE in SJL mice (i.v. on days 2 and 8 (0.5 mg)) it was 36%. Moreover, the “days of peak EAE severity” value with EAE in SJL mice (groups treated on days 2,8 or day 12) was 19 to 21 days. Moreover, in the assay with EAE in SJL mice (murine EAE model), the “effect on the course of disease progression (EAE)” value was “dramatically intervened in the progression”. Further, the “maximum mean EAE severity grade (0-5)” value with EAE in SJL mice (treated on day 12) amounted to 0.75; in the assay with EAE in SJL mice (treated on days 2,8), 0.77. Besides, the “average time of initial onset” value turned out to be 17.0 days with EAE in SJL mice (treated on day 12) and 17.1 days with EAE in SJL mice (treated on days 2,8). In assay [5] (untreated 83% lethal GVHD), this substance displayed an incidence of survival of 57%. For the same substance, in assay [5] (untreated 15 days, experiment ended at 65 days), the median survival time result is reported as “greater than 65 days”.
In the case of LESPPGSSPSV [SEQ ID NO:5], the CPM in assay [1] is recorded as 48000 CPM. Also, the “CPM after PHA stimulation” value stood at 53500 CPM in assay [2] (0.25 μM peptide, 5 μg/ml PHA) and 39500 CPM in assay [2] (250 μg peptide).
Consider TCTNLQNQKKVECK [SEQ ID NO:4], for which the CPM in assay [1] is 42000 CPM. Further, the “CPM after PHA stimulation” value in assay [2] (0.25 μM peptide, 5 μg/ml PHA) is listed as 47000 CPM; in assay [2] (250 μg peptide), 38000 CPM.
